Measurements published in EP1531819B1, “USE OF I kappa B KINASE INHIBITORS FOR THE TREATMENT OF PAIN” (Sanofi-Aventis Deutschland GmbH, priority 2002, dated 2004).

Legend:
[1] = system: Kaolin/Carrageenan induzierte Kniegelenksentzündung bei der Ratte; assay: Model 2: kaolin/carrageenan-induced knee joint inflammation, responses of spinal neurons to pressure on the knee; format: in vivo
From the text: Modell: Zymosan-induzierte Pfotenentzündung bei der Ratte; Parameter: Pfotenwegziehzeit oder Pfotenwegziehschwelle bei thermischer oder mechanischer Stimulation der Hinterpfote. • 2. Modell: Kaolin/Carrageenan induzierte Kniegelenksentzündung bei der Ratte; Parameter: Reaktion spinaler Neurone bei Druckreizung des Knies.
Versuchsdurchführung: Bei Ratten wurde in Trapanal-Narkose der Wirbelkanal eröffnet und Rückenmarksneurone, die "Schmerzimpulse" aus dem Kniegelenk verarbeiteten, identifiziert. Nach Identifizierung wurde eine Langzeitableitung durchgeführt, in der die Aktivität der Nervenzelle vor und während der Entwicklung einer akuten Entzündung im Kniegelenk registriert wurde. Dazu wurden in einer Kontrollperiode vor Induktion der Entzündung und nach Induktion der Entzündung für mehrere Stunden die Antworten auf nicht noxische und noxische Reizung am Kniegelenk gemessen.
Die akute Entzündung wurde durch die intraartikuläre Injektion einer Kaolin und Carrageenan Suspension (etwa 150 µl) induziert. In Kontrollexperimenten wurde nur das Vehikel auf die Rückenmarksoberfläche aufgebracht, um die Entwicklung der Übererregbarkeit unter Kontrollbedingungen darzustellen. In der Regel fand diese Entwicklung der Übererregbarkeit innerhalb von 2 bis 4 Stunden statt, und sie äußerte sich in einer starken Zunahme der Antworten auf nicht noxische und noxische Reizung des Kniegelenks (Tab. 3). […] Dann wurden die Antworten der Zelle auf nichtnoxische und noxische Reizung wie in den Kontrollexperimenten weiter verfolgt.

[2] = system: Zymosan-induzierte Pfotenentzündung bei der Maus; assay: Model 3: zymosan-induced paw inflammation, paw withdrawal latency on thermal stimulation (Hargreaves Test), AUC; format: in vivo; conditions: for AUC Mittelwert [Maß für Hyperalgesie]: thermische Hyperalgesie
Procedure: Parameter: Pfotenwegziehzeit bei thermischer Stimulation der Hinterpfote. Versuchsdurchführung: In Kurzzeitnarkose mit Isofluran wurde dem Versuchstier 25 μl einer Suspension, die 50 mg/ml Zymosan enthielt, in die rechte Hinterpfote injiziert. Dann wurde die […] quantitativ wie folgt bestimmt: Bestimmung der Pfotenwegziehzeit bei thermischer Stimulation (Hargreaves Test; s.o.). Das Versuchstier wurde in […] Versuchstier nach der Erkundungsphase (etwa 5 min) nicht mehr bewegte, wurde […] zu stimulierenden Hinterpfote positioniert und […]. Die […] ab, so dass die Hauttemperatur […] linear […] Pfote […] ab. Die Pfotentemperatur zum Zeitpunkt des Wegziehens ist für das Tier gerade eben unangenehm, […] von thermischer Schmerzschwelle. Kurz vor Zymosan-Injektion und für 7 bis 14 Tage nach Injektion wurde […] an der rechten und linken Hinterpfote bestimmt. Anschließend wurde […] Integral der Fläche, die aus […] und […] Pfote gebildet wurde, bestimmt (AUC, area between the curves, s. Tabellen 5 und 6). Je größer dieser Wert ist, umso […], und je kleiner der Wert bei Tieren, die die Substanz erhalten, desto stärker ist der Therapieerfolg. In einer 7-Tage Studie induzierte die Zymosan Injektion in […], Tab. 5). In den anderen Gruppen wurde die Substanzgabe einen Tag nach Zymosan Injektion, […] schon […]. […] Die […] Studie (7 Tage) ergab, dass die AUC unter Substanzgabe dosisabhängig abnahm. […] In einer parallel […] von Tieren wurde Paracetamol in einer sehr hohen Dosis ebenfalls zweimal am Tag verabreicht. […] Paracetamol (Tab. 5). […] […] Zymosan Injektion und Dosierschema […] zuvor beschriebenen Studie. Einziger Unterschied war, dass die weitere Studie über 14 Tage lief.

[3] = system: Zymosan-induzierte Pfotenentzündung bei der Maus; assay: Model 4: zymosan-induced paw inflammation, spontaneous running wheel performance, AUC; format: in vivo, C57/B6 Mäuse
From the text: Das Versuchstier hat in seinem Haltungskäfig Zugang zu einem Laufrad, dessen Umdrehungen elektronisch registriert werden. Die C57/B6 Mäuse benutzen in den Nachtstunden freiwillig das Laufrad und legen im Mittel nach einer einwöchigen Gewöhnungsphase 4100 Meter/Nacht zurück. Nach Zymosan Injektion ist die nächtliche Laufstrecke verkürzt. Diese Abnahme der Laufleistung gilt als Parameter für entzündungsschmerzbedingte Funktionseinschränkung. Versuchsdurchführung: Die Laufstrecke/24 Std. wurde nach einer Eingewöhnungsphase eine Woche lang zur Bestimmung der Baseline gemessen. Dann wurde in Kurzzeitnarkose mit Isofluran dem Versuchstier 25 µl einer Suspension, die […] Zymosan enthielt, in die rechte Hinterpfote injiziert. Anschließend wurde Laufstrecke/24 Std. während der nächsten sieben Tage ermittelt. In der Auswertung wurde die Fläche unter der Kurve der Laufstreckenwerte bestimmt (AUC, Tab. 7): je kleiner die AUC, desto geringer die Laufleistung in der Woche nach Zymosan Injektion. […] Die Substanzgabe wurde am Tag 1 nach Zymosan Injektion begonnen.

[4] = Versuch 1, 30-60 min nach K/C-Injektion
[5] = Versuch 1, 60-120 min nach K/C-Injektion
[6] = Versuch 1, 120-180 min nach K/C-Injektion
[7] = Versuch 2, 30-60 min nach K/C-Injektion
[8] = Versuch 2, 120-180 min nach K/C-Injektion
[9] = Versuch 2, 180-240 min nach K/C-Injektion
[10] = 7 days after Zymosan, 200 mg/kg twice daily

“2-(2-Methylamino-pyrimidin-4-yl)-1 H-benzoimidazol-5-carbonsäure ((S)1-carbamoyl-2- diphenylamin-ethyl)-amid [Verbindung 22]” was tested, and the “Wirkung im Modell 2” value [1] was “gute Wirkung”, the “Neuronale Antworten vor und während Kniegelenksentzündung, Nicht-noxische Reizung am Kniegelenk” value [1, 4] was -34,1 imp/15s and the “Neuronale Antworten vor und während Kniegelenksentzündung, Noxische Reizung am Kniegelenk” value [1, 4] was -109,1 imp/15s. For the same molecule, the “Neuronale Antworten vor und während Kniegelenksentzündung, Nicht-noxische Reizung am Kniegelenk” value [1, 5] was -37,2 imp/15s, the “Neuronale Antworten vor und während Kniegelenksentzündung, Noxische Reizung am Kniegelenk” value [1, 5] was -101,1 imp/15s and the “Neuronale Antworten vor und während Kniegelenksentzündung, Nicht-noxische Reizung am Kniegelenk” value [1, 6] was -32,1 imp/15s. For the same molecule, the “Neuronale Antworten vor und während Kniegelenksentzündung, Noxische Reizung am Kniegelenk” value [1, 6] was -37,8 imp/15s, the “Neuronale Antworten vor und während Kniegelenksentzündung, Nicht-noxische Reizung am Kniegelenk” value ([1]; Versuch 1, Baseline) was 0 imp/15s and the “Neuronale Antworten vor und während Kniegelenksentzündung, Noxische Reizung am Kniegelenk” value ([1]; Versuch 1, Baseline) was 0 imp/15s. The “Neuronale Antworten vor und während Kniegelenksentzündung, Nicht-noxische Reizung am Kniegelenk” value [1, 7] was -30,6 imp/15s, the “Neuronale Antworten vor und während Kniegelenksentzündung, Noxische Reizung am Kniegelenk” value [1, 7] was -9,2 imp/15s and the “Neuronale Antworten vor und während Kniegelenksentzündung, Nicht-noxische Reizung am Kniegelenk” value [1, 8] was 50,3 imp/15s. For the same molecule, the “Neuronale Antworten vor und während Kniegelenksentzündung, Noxische Reizung am Kniegelenk” value [1, 8] was 60 imp/15s, the “Neuronale Antworten vor und während Kniegelenksentzündung, Nicht-noxische Reizung am Kniegelenk” value [1, 9] was 68,7 imp/15s and the “Neuronale Antworten vor und während Kniegelenksentzündung, Noxische Reizung am Kniegelenk” value [1, 9] was 96,7 imp/15s. For the same molecule, the “Neuronale Antworten vor und während Kniegelenksentzündung, Nicht-noxische Reizung am Kniegelenk” value ([1]; Versuch 2, Baseline) was 0 imp/15s and the “Neuronale Antworten vor und während Kniegelenksentzündung, Noxische Reizung am Kniegelenk” value ([1]; Versuch 2, Baseline) was 0 imp/15s.
With `Cc1ccc(-c2cc(C(F)(F)F)nn2-c2ccc(S(N)(=O)=O)cc2)cc1` [Celecoxib, reference compound] the “AUC Mittelwert [Maß für Hyperalgesie]” value ([2]; 14 days after Zymosan, 25 mg/kg twice daily) was 51.5.
In the case of `CC(=O)Nc1ccc(O)cc1` [Paracetamol, reference compound], the “AUC Mittelwert (Laufradaktivität)” value [3, 10] is reported as 187.2, the “Laufleistung nach Zymosan Injektion gegenüber der Vehikelgruppe” value ([3]; 7 days, twice daily) is reported as “keine Verbesserung gegenüber der Vehikelgruppe” and the “Statistischer Unterschied gegenüber Vehikel” value ([3]; Laufradaktivität AUC, 7 days, 200 mg/kg twice daily) is reported as “nein”. The “Statistischer Unterschied gegenüber Vehikel” value ([2]; thermische Hyperalgesie AUC, 7 days, 200 mg/kg twice daily) was “ja” and the “AUC Mittelwert [Maß für Hyperalgesie]” value [2, 10] was 24.6.
